pIC50: −log10 of the molar value. Like-named read-outs stand apart in the source and are kept apart here.
Key:
[1] = test system: DNA prepared from MM.1S cells (nuclear HPRT and mitochondrial DNA); experiment: Direct DNA damage, PCR amplification of treated DNA (HPRT and mtDNA primers); format: biochemical, human; settings: 0.25 μM compound, 30 minutes, 37° C., 1 μg DNA
Method: Method: DNA was prepared from MM.1S cells by QIAGEN genomic tip 20/G according to protocol described in Furda et al., Methods Mol Biol, 2012. 1 μg of DNA was treated with 0.25 μM compound for 30 minutes at 37° C. DMSO was used as control treatment. 20 ng of the treated DNA was PCR amplified using Phusion Hot Start II High Fidelity PCR Master Mix (Thermo Scientific) and primers directed to either HPRT or primers directed to mitochondrial DNA (mtDNA) was used, generating 10.4 or 8.9 kb fragments, respectively. The PCR reactions were separated on a 1% agarose gel and visualized by ChemiDoc™ MP Imaging System (BioRad). Example compounds 1, 2 and 38 were investigated, as were compounds 18 and 20, which are metabolites of compound 1. They were compared with bendamustine, melphalan and DMSO control. The results for compounds 1, 2, 18 and 20 with the HPRT primers are shown in FIG. 4(A); the results with the mtDNA primers are shown in FIG. 4(B).

MM.1S cells [2] = experiment: Cellular retention/efflux: intracellular and extracellular concentrations by LC-MS/MS; format: in vitro ADME, human; settings: metabolites measured after treatment with the parent Example compound
Method: Methods: MMA1S cells at 2×10^6 cells/mL were seeded at 250 μL per well in a 96-well plate. Cells were incubated in the presence of a test compound for 5, 15, and 60 min before pelleting cells by centrifugation at +4° C. for 5 min. Cell media was immediately harvested to a second plate and stored at −80° C. until further analysis. Pelleted cells were washed once with ice cold PBS before storage at −80° C. until further analysis.
Cells were lysed and protein in the media were precipitated using acetonitrile dimethylformamide, 9:1 containing internal standard. Samples were centrifuged and the supernatant was analyzed with LC-MS/MS (ACQUITY UPLC-Xevo TQ-S micro) to determine compound concentration.
Example compound 1, bendamustine and melphalan were used as test compounds.
Method: Method described in Biological example 3.
Example compounds 1, 2, 3, 4, 6, 7 and 10 were investigated. Intracellular metabolites are formed from all compounds tested. The compound used for cell treatment was metabolised to the ester-hydrolysed compound (here called Metabolite A) and to the amide-hydrolysed compound (called Metabolite B). The example compound structures and the structures of the two metabolites for the respective compounds were as shown in Table 4. The Metabolites B formed under the conditions tested were compounds with structure as Examples 17 and 18: […]

MM.1S cells [3] = experiment: In vitro cytotoxic potency in MM.1S cell viability assay (CellTiter-Glo); format: cell-based, human; settings: Homo sapiens, MM1.S, 72 h
Method: Methods: MM.1S Cells were cultivated in RPMI medium 1640 (IX) supplemented with 10 μg/μL penicillin/streptomycin, 10% heat inactivated FBS, 0.1 mM Sodium Pyruvate, 1×MEM NEAA (ThermoFisher) and 1 mM HEPES. Cells were grown to reach log phase before being exposed to the test compounds.
(§1) Test compounds (Example compounds 1 to 36, 38 to 41 and 45 to 48) and comparative compounds (bendamustine, busulfan, melphalan, chlorambucil and 4-hydroperoxy cyclophosphamide) were dissolved in 100% DMSO and added to a 384 assay plate. Additional DMSO was added to maintain the same final DMSO concentration (0.2%) in all wells. 25 μL cell suspension with a concentration of 100000 cells/mL was added to each well. The cells were cultured in a CO2 incubator at 37° C. for 72 h. Plates were equilibrated to room temperature for 30 minutes before adding 20 μL CellTiter-Glo® 2.0 (Promega) reagent to all wells. The plate was then allowed to stabilize for 20 minutes before recording the luminescence (emission filter 700 nm) in an Envision plate reader.
(§2) All cells were cultivated in RPMI medium 1640 (IX). All media was supplemented with 10 μg/μl penicillin/streptomycin, 10% heat inactivated FBS, 0.1 mM Sodium Pyruvate, 1×MEM NEAA (ThermoFisher) and 1 mM HEPES. The DERL-2 cells had higher FBS (20%) and 40 ng/mL IL-2 was added. hPBMCs were thawed and allowed to acclimatise overnight and then stimulated with 10 μg/mL PHA-M and 40 ng/mL IL-2 for 4 hours before being exposed to test compounds. All cells, except for hPBMCs, were grown to reach log phase before being exposed to the test compounds.
as §1, with “compounds” for “compounds (Example compounds 1 to 36, 38 to 41 and 45 to 48) and comparative compounds (bendamustine, busulfan, melphalan, chlorambucil and 4-hydroperoxy cyclophosphamide)”, “(Em” for “(emission”

DOHH-2 = experiment: In vitro cytotoxicity, DOHH-2 (B Cell Lymphoma); format: cell-based; settings: Homo sapiens, DOHH-2; 72 h, CellTiter-Glo 2.0; read-out: Cytotoxicity IC50, DOHH-2
Method: as §2
as §1, with “compounds” for “compounds (Example compounds 1 to 36, 38 to 41 and 45 to 48) and comparative compounds (bendamustine, busulfan, melphalan, chlorambucil and 4-hydroperoxy cyclophosphamide)”, “(Em” for “(emission”

HG-3 = experiment: In vitro cytotoxicity, HG-3 (Chronic Lymphocytic Leukemia); format: cell-based; settings: Homo sapiens, HG-3; 72 h, CellTiter-Glo 2.0; read-out: Cytotoxicity IC50, HG-3
Method: as §2
as §1, with “compounds” for “compounds (Example compounds 1 to 36, 38 to 41 and 45 to 48) and comparative compounds (bendamustine, busulfan, melphalan, chlorambucil and 4-hydroperoxy cyclophosphamide)”, “(Em” for “(emission”

RPMI-8226 = experiment: In vitro cytotoxicity, RPMI-8226 (Multiple Myeloma, resistant); format: cell-based; settings: Homo sapiens, RPMI-8226; 72 h, CellTiter-Glo 2.0; read-out: Cytotoxicity IC50, RPMI-8226
Method: as §2
as §1, with “compounds” for “compounds (Example compounds 1 to 36, 38 to 41 and 45 to 48) and comparative compounds (bendamustine, busulfan, melphalan, chlorambucil and 4-hydroperoxy cyclophosphamide)”, “(Em” for “(emission”

Toledo = experiment: In vitro cytotoxicity, Toledo (Diffuse Large B Cell Lymphoma); format: cell-based; settings: Homo sapiens, 72 h, CellTiter-Glo 2.0, read-out: Cytotoxicity IC50, Toledo
Method: as §2
as §1, with “compounds” for “compounds (Example compounds 1 to 36, 38 to 41 and 45 to 48) and comparative compounds (bendamustine, busulfan, melphalan, chlorambucil and 4-hydroperoxy cyclophosphamide)”, “(Em” for “(emission”

SK-MM-1 = experiment: In vitro cytotoxicity, SK-MM-1 (Plasma Cell Leukemia); format: cell-based; settings: Homo sapiens; 72 h, CellTiter-Glo 2.0; read-out: Cytotoxicity IC50, SK-MM-1
Method: as §2
as §1, with “compounds” for “compounds (Example compounds 1 to 36, 38 to 41 and 45 to 48) and comparative compounds (bendamustine, busulfan, melphalan, chlorambucil and 4-hydroperoxy cyclophosphamide)”, “(Em” for “(emission”

SC-1 = experiment: In vitro cytotoxicity, SC-1 (B cell Lymphoma); format: cell-based; settings: Homo sapiens, SC-1; 72 h, CellTiter-Glo 2.0; read-out: Cytotoxicity IC50, SC-1
Method: as §2
as §1, with “compounds” for “compounds (Example compounds 1 to 36, 38 to 41 and 45 to 48) and comparative compounds (bendamustine, busulfan, melphalan, chlorambucil and 4-hydroperoxy cyclophosphamide)”, “(Em” for “(emission”

SU-DHL-8 = experiment: In vitro cytotoxicity, SU-DHL-8 (B-cell non-Hodgkin Lymphoma); format: cell-based; settings: Homo sapiens, SU-DHL-8; 72 h, CellTiter-Glo 2.0; read-out: Cytotoxicity IC50, SU-DHL-8
Method: as §2
as §1, with “compounds” for “compounds (Example compounds 1 to 36, 38 to 41 and 45 to 48) and comparative compounds (bendamustine, busulfan, melphalan, chlorambucil and 4-hydroperoxy cyclophosphamide)”, “(Em” for “(emission”

U937 = experiment: In vitro cytotoxicity, U937 (Histiocytic Lymphoma); format: cell-based; settings: Homo sapiens, U-937; 72 h, CellTiter-Glo 2.0; read-out: Cytotoxicity IC50, U937
Method: as §2
as §1, with “compounds” for “compounds (Example compounds 1 to 36, 38 to 41 and 45 to 48) and comparative compounds (bendamustine, busulfan, melphalan, chlorambucil and 4-hydroperoxy cyclophosphamide)”, “(Em” for “(emission”

Compound	pIC50 (MM.1S cells [3]; read-out: MM.1S IC50)	further results
Cn1c(CC[C@H](N)C(=O)O)nc2cc(N(CCCl)CCCl)ccc21 [Example 18, (S)-2-amino-4-(5-(bis(2-chloroethyl)amino)-1-methyl-1H-benzo[d]imidazol-2-yl)butanoic acid]	4.69	DNA damage on nuclear and mitochondrial DNA (PCR band) [1]: effectively damaged both nuclear and mitochondrial DNA; Intracellular concentration (in words) (MM.1S cells [2]; MM.1S cells incubated with test compound 5, 15, 60 min): rapidly formed inside the cells; Extracellular concentration (in words) (MM.1S cells [2]; media of MM.1S cells incubated with test compound 5, 15, 60 min): low levels of it are found in the media outside the cells
CC(C)C[C@H](NC(=O)[C@@H](N)CCc1nc2cc(N(CCCl)CCCl)ccc2n1C)C(=O)O [Example 20, (2S)-2-[[(2S)-2-amino-4-[5-[bis(2-chloroethyl)amino]-1-methyl-benzimidazol-2-yl]butanoyl]amino]-4-methyl-pentanoic acid]	5.24	DNA damage on nuclear and mitochondrial DNA (PCR band) [1]: DNA damaging effect but to a lesser degree compared to Example compounds 1, 2 and 18
CNC(=O)[C@H](CC(C)C)NC(=O)[C@@H](N)CCc1nc2cc(N(CCCl)CCCl)ccc2n1C [Example 31, (2S)-2-[[(2S)-2-amino-4-[5-[bis(2-chloroethyl)amino]-1-methyl-benzimidazol-2-yl]butanoyl]amino]-N,4-dimethyl-pentanamide]	6.74	–
CCOC(=O)[C@H](CC(C)C)NC(=O)[C@H](CCc1nc2cc(N(CCCl)CCCl)ccc2n1C)NC [Example 32, Ethyl (2S)-2-[[(2S)-4-[5-[bis(2-chloroethyl)amino]-1-methyl-benzimidazol-2-yl]-2-(methylamino)butanoyl]amino]-4-methyl-pentanoate]	7.84	–
CN[C@@H](CCc1nc2cc(N(CCCl)CCCl)ccc2n1C)C(=O)N[C@@H](CC(C)C)C(=O)O [Example 33, (2S)-2-[[(2S)-4-[5-[bis(2-chloroethyl)amino]-1-methyl-benzimidazol-2-yl]-2-(methylamino)butanoyl]amino]-4-methyl-pentanoic acid]	4.10	–
CCOC(=O)[C@H](CC(C)C)NC(=O)[C@H](Cc1nc2cc(N(CCCl)CCCl)ccc2n1C)NC(C)=O [Example 35, Ethyl (2S)-2-[[(2S)-2-acetamido-3-[5-[bis(2-chloroethyl)amino]-1-methyl-benzimidazol-2-yl]propanoyl]amino]-4-methyl-pentanoate]	7.06	–
CCOC(=O)[C@H](Cc1ccc(F)cc1)NC(=O)[C@H](Cc1nc2cc(N(CCCl)CCCl)ccc2n1C)NC(C)=O [Example 36, Ethyl (2S)-2-[[(2S)-2-acetamido-3-[5-[bis(2-chloroethyl)amino]-1-methyl-benzimidazol-2-yl]propanoyl]amino]-3-(4-fluorophenyl)propanoate]	7.24	–
CCOC(=O)[C@@H](N)CCc1nc2cc(N(CCCl)CCCl)ccc2n1C.Cl.Cl [Example 38, Ethyl (2S)-2-amino-4-[5-[bis(2-chloroethyl)amino]-1-methyl-benzimidazol-2-yl]butanoate]	7.28	pIC50 (DOHH-2): 7.55; pIC50 (HG-3): 7.30; pIC50 (RPMI-8226): 6.17; pIC50 (Toledo): 7.79; pIC50 (SK-MM-1): 6.76; DNA damage on nuclear and mitochondrial DNA (PCR band) [1]: effectively damaged both nuclear and mitochondrial DNA; pIC50 (SC-1): 7.11; pIC50 (SU-DHL-8): 7.15; pIC50 (MM.1S cells [3]; read-out: Cytotoxicity IC50, MM.1S): 7.28; pIC50 (U937): 7.60
Cn1c(CC[C@H](N)C(=O)N[C@@H](Cc2ccc(F)cc2)C(=O)O)nc2cc(N(CCCl)CCCl)ccc21 [Example 39, (2S)-2-[[(2S)-2-Amino-4-[5-[bis(2-chloroethyl)amino]-1-methyl-benzimidazol-2-yl]butanoyl]amino]-3-(4-fluorophenyl)propanoic acid]	< 5.70	–
CC(C)C[C@H](NC(=O)[C@@H](N)CCc1nc2cc(N(CCCl)CCCl)ccc2n1-c1ccccc1)C(=O)O [Example 40, (2S)-2-[[(2S)-2-Amino-4-[5-[bis(2-chloroethyl)amino]-1-phenyl-benzimidazol-2-yl]butanoyl]amino]-4-methyl-pentanoic acid]	5.14	–
N[C@@H](CCc1nc2cc(N(CCCl)CCCl)ccc2n1-c1ccccc1)C(=O)O [Example 41, (2S)-2-Amino-4-[5-[bis(2-chloroethyl)amino]-1-phenyl-benzimidazol-2-yl]butanoic acid]	4.78	–
CCOC(=O)[C@@H](CC(C)C)NC(=O)[C@@H](N)CCc1nc2cc(N(CCCl)CCCl)ccc2n1C [Example 45, Ethyl (2R)-2-[[(2S)-2-amino-4-[5-[bis(2-chloroethyl)amino]-1-methyl-benzimidazol-2-yl]butanoyl]amino]-4-methyl-pentanoate]	6.29	–
CCOC(=O)[C@H](CC(C)C)NC(=O)[C@H](N)CCc1nc2cc(N(CCCl)CCCl)ccc2n1C [Example 46, Ethyl (2S)-2-[[(2R)-2-amino-4-[5-[bis(2-chloroethyl)amino]-1-methyl-benzimidazol-2-yl]butanoyl]amino]-4-methyl-pentanoate]	7.23	–
CCOC(=O)[C@@H](CC(C)C)NC(=O)[C@H](N)CCc1nc2cc(N(CCCl)CCCl)ccc2n1C [Example 47, Ethyl (2R)-2-[[(2R)-2-amino-4-[5-[bis(2-chloroethyl)amino]-1-methyl-benzimidazol-2-yl]butanoyl]amino]-4-methyl-pentanoate]	5.77	–
CCOC(=O)[C@H](CC(C)C)NC(=O)[C@@H](N)CCc1nc2cc(N(CCCl)CCCl)cnc2n1C [Example 48, Ethyl (2S)-2-[[(2S)-2-amino-4-[6-[bis(2-chloroethyl)amino]-3-methyl-imidazo[4,5-b]pyridin-2-yl]butanoyl]amino]-4-methyl-pentanoate]	6.69	–
